According to article PMC10388362, “Fluorescent Ligands Enable Target Engagement Studies for the Intracellular Allosteric Binding Site of the Chemokine Receptor CXCR2” (Journal of Medicinal Chemistry, 2023):
Where “and” joins values, the source holds several entries; their conditions need not be identical. Equal entries are not always repeated.

Biological target: T1, CXCR2 (Homo sapiens, UniProt P25025)
T1 construct: Promega pNLF1-C (Nluc) #CXCR20TN00; host or cells: HEK293T, transient transfection (PEI)
T1 sequence (P25025 1-360): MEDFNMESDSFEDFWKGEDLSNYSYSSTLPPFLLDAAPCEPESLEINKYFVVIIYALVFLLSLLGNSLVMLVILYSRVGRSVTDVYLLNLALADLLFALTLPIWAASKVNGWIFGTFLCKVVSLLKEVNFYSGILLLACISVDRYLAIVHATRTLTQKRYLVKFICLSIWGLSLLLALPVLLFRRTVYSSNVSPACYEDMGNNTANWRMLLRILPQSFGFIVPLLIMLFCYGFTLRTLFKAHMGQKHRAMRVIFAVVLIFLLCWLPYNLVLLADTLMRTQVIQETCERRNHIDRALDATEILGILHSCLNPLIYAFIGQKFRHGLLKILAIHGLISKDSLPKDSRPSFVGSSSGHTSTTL
Test: Membrane-based NanoBRET association and dissociation kinetic assay
Format: binding
Method: 5 μL of a solution of the fluorescent ligand (9a) diluted to varying concentrations (final assay concentrations: 10–100 nM) in the assay buffer and 5 μL of the assay buffer were transferred to a 384-well plate. For the determination of nonspecific binding, we added a solution of a nonlabeled competitor dissolved in the assay buffer (3, final assay concentration: 10 μM) instead. After the addition of 5 μL of a furimazine solution (final assay dilution: 1:350 in assay buffer), plates were incubated for 3 min in the dark at ambient temperature. Subsequently, 20 μL of the membrane preparation (2 μg total protein/well) was added (final assay volume: 35 μL). BRET ratios were measured with a CLARIOstar microplate reader using 620/10 and 475/30 nm emission filters over time at ambient temperature or 37 °C. The obtained data were analyzed using the association kinetics (one ligand concentration) algorithm in PRISM9.5 (GraphPad) to determine association kinetics using a predetermined koff as a constraint.
5 μL of a solution of the fluorescent ligand (9a) diluted to varying concentrations (final assay concentrations: 10–100 nM) in the assay buffer and 5 μL of the assay buffer were transferred to a 384-well plate. In order to determine nonspecific binding, we added a solution of a nonlabeled competitor dissolved in the assay buffer (3, final assay concentration: 10 μM) instead of the 5 μL of the assay buffer. Then, 20 μL of the membrane preparation (2 μg total protein/well) was added, and plates were incubated for 4 h at ambient temperature in the dark. Subsequently, 5 μL of a vivazine solution (final assay dilution: 1:350 in assay buffer) was added. Plates were incubated for further 60 min in the dark at ambient temperature. Thereafter, 1 μL of a solution of a […] competitor dissolved in the assay buffer (3, final assay concentration: 10 μM) was added. For control experiments, we added 1 μL of the assay buffer instead of the competitor solution. BRET ratios were measured with a CLARIOstar microplate reader using 620/10 and 475/30 nm emission filters over time at ambient temperature or 37 °C. Specific BRET ratios were calculated as a difference of total and nonspecific binding. The obtained data were analyzed using the dissociation—one phase exponential decay algorithm in PRISM9.5 (GraphPad) to determine dissociation kinetics.

[1] = CXCR2_Nluc membranes, 37 °C, mean
[2] = CXCR2_Nluc membranes, room temperature, mean
[3] = membranes, 37 °C, 9a 10 nM, single determinations
[4] = membranes, 37 °C, 9a 10 nM, single determinations, koff fixed 0.00569 min-1
[5] = membranes, 37 °C, 9a 25 nM, single determinations
[6] = membranes, 37 °C, 9a 25 nM, single determinations, koff fixed 0.00569 min-1
[7] = membranes, 37 °C, 9a 50 nM, single determinations
[8] = membranes, 37 °C, 9a 50 nM, single determinations, koff fixed 0.00569 min-1
[9] = membranes, 37 °C, 9a 100 nM, single determinations
[10] = membranes, 37 °C, 9a 100 nM, single determinations, koff fixed 0.00569 min-1
[11] = membranes, room temperature, 9a 10 nM, single determinations
[12] = membranes, room temperature, 9a 25 nM, single determinations
[13] = membranes, room temperature, 9a 50 nM, single determinations
[14] = membranes, room temperature, 9a 100 nM, single determinations

- koff [1]: 9.48e-05 s⁻¹
- kon [1]: 32600 M⁻¹ s⁻¹
- tR [1]: 178.8 min
- Kd (CXCR2_Nluc membranes, cell-free, 37 °C): 2.91 ± 0.27 nM
- Kd (CXCR2_Nluc membranes, room temperature): 1.94 ± 0.27 nM
- koff [2]: 3.57e-05 s⁻¹
- kon [2]: 18300 M⁻¹ s⁻¹
- residence time tr [2]: 485.6 min
- residence time (CXCR2_Nluc membranes, room temperature, mean, read-out: residence time tr): 486 ± 28 min
- koff [3]: 8.83e-05 s⁻¹
- koff [min-1] [3]: 0.00567 min⁻¹ and 0.00464 min⁻¹
- tR [3]: 188.6 min and 176.4 min and 215.5 min
- kon [4]: 42500 M⁻¹ s⁻¹
- kon [M-1 min-1] [4]: 52685.82 M⁻¹ s⁻¹ and 46570.12 M⁻¹ s⁻¹
- koff [5]: 0.000102 s⁻¹
- koff [min-1] [5]: 0.00658 min⁻¹ and 0.00473 min⁻¹
- tR [5]: 162.5 min and 152.0 min and 211.3 min
- kon [6]: 29600 M⁻¹ s⁻¹
- kon [M-1 min-1] [6]: 40515.73 M⁻¹ s⁻¹ and 31065.33 M⁻¹ s⁻¹
- koff [7]: 9.33e-05 s⁻¹
- koff [min-1] [7]: 0.0059 min⁻¹ and 0.00531 min⁻¹
- tR [7]: 178.6 min and 169.4 min and 188.3 min
- kon [8]: 26700 M⁻¹ s⁻¹
- kon [M-1 min-1] [8]: 29466.47 M⁻¹ s⁻¹ and 24036.28 M⁻¹ s⁻¹
- koff [9]: 0.000105 s⁻¹
- koff [min-1] [9]: 0.00726 min⁻¹ and 0.00487 min⁻¹
- tR [9]: 159.6 min and 137.7 min and 205.4 min
- kon [10]: 23300 M⁻¹ s⁻¹
- kon [M-1 min-1] [10]: 25508.45 M⁻¹ s⁻¹ and 19799.72 M⁻¹ s⁻¹
- koff [11]: 3.12e-05 s⁻¹
- koff [min-1] [11]: 0.00183 min⁻¹ and 0.00215 min⁻¹
- tR [11]: 534.2 min and 545.6 min and 464.7 min
- koff [12]: 2.9e-05 s⁻¹
- koff [min-1] [12]: 0.00253 min⁻¹ and 0.00232 min⁻¹
- tR [12]: 575.7 min and 394.8 min and 431.4 min
- koff [13]: 2.68e-05 s⁻¹
- koff [min-1] [13]: 0.00305 min⁻¹ and 0.00242 min⁻¹
- tR [13]: 619.6 min and 328.4 min and 413.1 min
- koff [14]: 2.58e-05 s⁻¹
- koff [min-1] [14]: 0.00219 min⁻¹ and 0.00238 min⁻¹
- tR [14]: 643.1 min and 457.0 min and 420.0 min
Compound: Cc1ccc([C@H](Nc2c(Nc3cccc(C(=O)NCc4cn(CCOCCOCCOCCNC(=O)c5ccc(C(=O)[O-])c(-c6c7ccc(=[N+](C)C)cc-7oc7cc(N(C)C)ccc67)c5)nn4)c3O)c(=O)c2=O)C(C)(C)C)o1 [9a, (R)-4-((2-(2-(2-(2-(4-((3-((2-((2,2-Dimethyl-1-(5-methylfuran-2-yl)propyl)amino)-3,4-dioxocyclobut-1-en-1-yl)amino)-2-hydroxybenzamido)methyl)-1H-1,2,3-triazol-1-yl)ethoxy)ethoxy)ethoxy)ethyl)carbamoyl)-2-(6-(dimethylamino)-3-(dimethyliminio)-3H-xanthen-9-yl)benzoate]
